Reference: patent publication US20100022562A1, “Use of Plant Growth Regulators to Reduce Abscisic Acid Related Plant Leaf Yellowing” (priority 2008, published 2010)

Key:
[1] = test system: Pansy plants; assay: Pansy shelf life under drought (daily wilting rating, sales index); type: in vivo
Protocol: All studies were conducted in the greenhouse at the research farm of Valent BioSciences Corporation (Long Grove, Ill.). Pansy plants were obtained either from local retailers as mature plants, or plugs from wholesale nurseries. Plugs of Pansy plants were transplanted into an 18-cell flat filled with Promix BX (available from Premier Horticulture Inc. Quakertown, Pa.) and grown for about 30 days prior to treatment. During growing periods, plants received daily irrigation and weekly fertilizer (1 g/L all purpose fertilizer 20-20-20, The Scotts Company, Marysville, Ohio).
(§1) Uniform plants were selected for the study. Prior to chemical treatment, plants were saturated with water and then drained for about two hours. A total of 20 mL chemical solution, which is equivalent to about 10% of the cell volume, was applied to each plant with 3 mL solution foliar applied to canopy and 17 mL solution drench applied to root zone. Unless specified, watering of plants was stopped after chemical treatment.
(§2) After chemical treatment, plants were arranged in a randomized complete block experimental design. The plants were rated daily for the extent of wilting on a scale from 1 (no wilting) to 4 (complete wilting) to generated a sales index rating. A rating of 2.5 was the point at which a plant was determined to be unmarketable and the previous day was recorded as the shelf life of that plant in days. Yellow leaf number was counted at 3 days after chemical treatment. Leaf transpiration rate was measured after treatment using a LI-1600 Steady State Porometer (LI-Cor, Lincoln, Nebr.). The transpiration rate of each treatment was calculated as the percentage of that of control at each day to reduce day-to-day variation caused by changes of environmental condition such as light intensity, humidity, and temperature.

[2] = test system: Pansy plants; assay: Pansy leaf transpiration rate (LI-1600 Steady State Porometer); type: in vivo; conditions: for Transpiration rate (% of control): Matrix Premium Rose
Protocol: as §1, §2

(S)-5-(1-hydroxy-2,6,6,-trimethyl-4-oxo-2-cyclohexen-1-yl)-3-methyl-(2Z,4E)-pentadienoic acid [ABA]
Shelf life ([1]; 0.3 mg ABA, Matrix Yellow, Table 5): 4.8 days
Shelf life ([1]; 0.3 mg ABA, Matrix Yellow, Table 6): 4.8 days
Shelf life ([1]; 0.3 mg ABA, Matrix Yellow, Table 17): 3.2 days
Shelf life ([1]; 1 mg, Matrix Orange, drought, Table 1): 5.0 days
Shelf life ([1]; 3 mg ABA, Colossus Formula Mix, no water, Table 20): 5.2 days
Shelf life ([1]; 3 mg ABA, Delta Premium Pure White, Table 21): 8.3 days
Shelf life ([1]; 3 mg ABA, Delta Premium Pure White, Table 22): 5.7 days
Shelf life ([1]; 3 mg ABA, Delta Premium Pure White, Table 24): 5.2 days
Shelf life ([1]; 3 mg ABA, Matrix Yellow, Table 5): 5.7 days
Shelf life ([1]; 3 mg ABA, Matrix Yellow, Table 6): 6.0 days
Shelf life ([1]; 3 mg ABA, Matrix Yellow, Table 17): 4.3 days
Shelf life ([1]; 3 mg ABA, no water, Matrix Premium Rose, Table 13): 4.8 days
Shelf life ([1]; 3 mg, Clear Sky Yellow, drought, Table 8): 6.5 days
Shelf life ([1]; 3 mg, Crown Azure Blue, drought, Table 9): 5.2 days
Shelf life ([1]; 3 mg, Delta Premium Pure Golden Yellow, advanced seedling stage (1 month old), drought, Table 4): 4.2 days
Shelf life ([1]; 3 mg, Delta Premium Pure Golden Yellow, drought, Table 3): 5.3 days
Shelf life ([1]; 3 mg, Matrix Orange, drought, Table 1): 5.8 days
Shelf life ([1]; 3 mg, Matrix Orange, drought, Table 2): 5.2 days
Shelf life ([1]; 3 mg, Matrix Yellow, drought, Table 7): 7.7 days
Shelf life ([1]; 3 mg, Matrix Yellow, drought, Table 10): 4.3 days
Shelf life ([1]; 10 mg, Delta Premium Pure Golden Yellow, advanced seedling stage (1 month old), drought, Table 4): 5.7 days
Shelf life ([1]; 10 mg, Delta Premium Pure Golden Yellow, drought, Table 3): 6.5 days
Shelf life ([1]; 10 mg, Matrix Orange, drought, Table 1): 7.0 days
Shelf life ([1]; 10 mg, Matrix Orange, drought, Table 2): 6.7 days
Shelf life ([1]; 30 mg ABA, Colossus Formula Mix, Table 18): 6.2 days
Shelf life ([1]; 30 mg ABA, Colossus Formula Mix, no water, Table 20): 6.5 days
Shelf life ([1]; 30 mg ABA, Delta Premium Pure White, Table 19): 8.7 days
Shelf life ([1]; 30 mg ABA, Delta Premium Pure White, Table 21): 10.2 days
Shelf life ([1]; 30 mg ABA, Delta Premium Pure White, Table 22): 9.2 days
Shelf life ([1]; 30 mg ABA, Delta Premium Pure White, Table 23): 8.2 days
Shelf life ([1]; 30 mg ABA, Delta Premium Pure White, Table 24): 7.2 days
Shelf life ([1]; 30 mg ABA, Matrix Premium Rose, no water from 1 day after ABA, Table 11): 7.2 days
Shelf life ([1]; 30 mg ABA, Matrix Yellow, Table 5): 10.2 days
Shelf life ([1]; 30 mg ABA, Matrix Yellow, Table 6): 10.8 days
Shelf life ([1]; 30 mg ABA, Matrix Yellow, Table 17): 8.3 days
Shelf life ([1]; 30 mg ABA, no water, Matrix Premium Rose, Table 13): 7.2 days
Shelf life ([1]; 30 mg, Clear Sky Yellow, drought, Table 8): 7.8 days
Shelf life ([1]; 30 mg, Crown Azure Blue, drought, Table 9): 6.7 days
Shelf life ([1]; 30 mg, Delta Premium Pure Golden Yellow, advanced seedling stage (1 month old), drought, Table 4): 7.7 days
Shelf life ([1]; 30 mg, Delta Premium Pure Golden Yellow, drought, Table 3): 8.0 days
Shelf life ([1]; 30 mg, Matrix Orange, drought, Table 1): 8.0 days
Shelf life ([1]; 30 mg, Matrix Orange, drought, Table 2): 9.2 days
Shelf life ([1]; 30 mg, Matrix Yellow, drought, Table 7): 9.3 days
Shelf life ([1]; 30 mg, Matrix Yellow, drought, Table 10): 8.0 days
Transpiration rate (% of control) ([2]; 3 mg ABA, no water, day 1 after treatment, Table 14): 22 % of control
Transpiration rate (% of control) ([2]; 3 mg ABA, no water, day 2 after treatment, Table 14): 15 % of control
Transpiration rate (% of control) ([2]; 3 mg ABA, no water, day 3 after treatment, Table 14): 34 % of control
Transpiration rate (% of control) ([2]; 3 mg ABA, no water, day 4 after treatment, Table 14): 35 % of control
Transpiration rate (% of control) ([2]; 3 mg ABA, no water, day 5 after treatment, Table 14): 27 % of control
Transpiration rate (% of control) ([2]; 3 mg ABA, watered, day 1 after treatment, Table 14): 23 % of control
Transpiration rate (% of control) ([2]; 3 mg ABA, watered, day 2 after treatment, Table 14): 18 % of control
Transpiration rate (% of control) ([2]; 3 mg ABA, watered, day 3 after treatment, Table 14): 36 % of control
Transpiration rate (% of control) ([2]; 3 mg ABA, watered, day 4 after treatment, Table 14): 43 % of control
Transpiration rate (% of control) ([2]; 3 mg ABA, watered, day 5 after treatment, Table 14): 59 % of control
Transpiration rate (% of control) ([2]; 3 mg ABA, watered, day 7 after treatment, Table 14): 76 % of control
Transpiration rate (% of control) ([2]; 3 mg ABA, watered, day 10 after treatment, Table 14): 97 % of control
Transpiration rate (% of control) ([2]; 3 mg ABA, watered, day 15 after treatment, Table 14): 97 % of control
Transpiration inhibition ([2]; 3 mg ABA, watered, within 5 days after treatment): more than 50%
Transpiration rate (% of control) ([2]; 30 mg ABA, day 1 after ABA treatment, Table 12): 6 % of control
Transpiration rate (% of control) ([2]; 30 mg ABA, day 2 after ABA treatment, Table 12): 8 % of control
Transpiration rate (% of control) ([2]; 30 mg ABA, day 3 after ABA treatment, Table 12): 11 % of control
Transpiration rate (% of control) ([2]; 30 mg ABA, no water, day 1 after treatment, Table 14): 7 % of control
Transpiration rate (% of control) ([2]; 30 mg ABA, no water, day 2 after treatment, Table 14): 8 % of control
Transpiration rate (% of control) ([2]; 30 mg ABA, no water, day 3 after treatment, Table 14): 8 % of control
Transpiration rate (% of control) ([2]; 30 mg ABA, no water, day 4 after treatment, Table 14): 15 % of control
Transpiration rate (% of control) ([2]; 30 mg ABA, no water, day 5 after treatment, Table 14): 21 % of control
Transpiration rate (% of control) ([2]; 30 mg ABA, no water, day 7 after treatment, Table 14): 27 % of control
Transpiration rate (% of control) ([2]; 30 mg ABA, watered, day 1 after treatment, Table 14): 7 % of control
Transpiration rate (% of control) ([2]; 30 mg ABA, watered, day 2 after treatment, Table 14): 7 % of control
Transpiration rate (% of control) ([2]; 30 mg ABA, watered, day 3 after treatment, Table 14): 9 % of control
Transpiration rate (% of control) ([2]; 30 mg ABA, watered, day 4 after treatment, Table 14): 15 % of control
Transpiration rate (% of control) ([2]; 30 mg ABA, watered, day 5 after treatment, Table 14): 21 % of control
Transpiration rate (% of control) ([2]; 30 mg ABA, watered, day 7 after treatment, Table 14): 28 % of control
Transpiration rate (% of control) ([2]; 30 mg ABA, watered, day 10 after treatment, Table 14): 56 % of control
Transpiration rate (% of control) ([2]; 30 mg ABA, watered, day 15 after treatment, Table 14): 99 % of control
Transpiration inhibition ([2]; 30 mg ABA, watered, through 10 days after treatment): more than 50%
